Where two headings read alike, the source gives them in different places.
Key:
[1] = system: TK-10; assay: NCI-60 SRB growth inhibition, one-dose and five-dose; format: cell-based; conditions: Homo sapiens; for inhibition at 10 µM: TK-10, read-out: percent growth inhibition
[2] = system: HL-60(TB); assay: cells; format: cell-based; conditions: Homo sapiens; for inhibition at 10 µM: HL-60, read-out: percent growth inhibition
[3] = system: MDA-MB-468; assay: NCI-60 SRB growth inhibition, one-dose and five-dose; format: cell-based; conditions: Homo sapiens; for inhibition at 10 µM: MDA-MB-468, read-out: percent growth inhibition
[4] = system: PC-3; assay: as above; format: cell-based; conditions: Homo sapiens; for inhibition at 10 µM: PC-3, read-out: percent growth inhibition
[5] = system: OVCAR-8; assay: as above; format: cell-based; conditions: Homo sapiens, OVCAR-8, read-out: percent growth inhibition
[6] = system: SK-MEL-28; assay: as above; format: cell-based; conditions: Homo sapiens; for inhibition at 10 µM: SK-MEL-28, read-out: percent growth inhibition
[7] = system: NCI-H23; assay: as above; format: cell-based; conditions: Homo sapiens; for inhibition at 10 µM: NCI-H23, read-out: percent growth inhibition
[8] = system: SW-620; assay: as above; format: cell-based; conditions: Homo sapiens; for inhibition at 10 µM: SW-620, read-out: percent growth inhibition
[9] = system: EKVX; assay: as above; format: cell-based; conditions: Homo sapiens; for inhibition at 10 µM: read-out: percent growth inhibition
[10] = system: UACC-257; assay: as above; format: cell-based; conditions: Homo sapiens; for inhibition at 10 µM: UACC-257, read-out: percent growth inhibition
[11] = system: KM12; assay: as above; format: cell-based; conditions: Homo sapiens; for inhibition at 10 µM: KM12, read-out: percent growth inhibition
[12] = system: U251; assay: as above; format: cell-based; conditions: Homo sapiens; for inhibition at 10 µM: U-251, read-out: percent growth inhibition
[13] = system: MOLT-4; assay: as above; format: cell-based; conditions: Homo sapiens; for inhibition at 10 µM: MOLT-4, read-out: percent growth inhibition
[14] = system: RPMI-8226; assay: as above; format: cell-based; conditions: Homo sapiens; for inhibition at 10 µM: RPMI-8226, read-out: percent growth inhibition
[15] = system: SN12C; assay: as above; format: cell-based; conditions: Homo sapiens; for inhibition at 10 µM: read-out: percent growth inhibition
[16] = system: SK-OV-3; assay: as above; format: cell-based; conditions: Homo sapiens; for inhibition at 10 µM: SK-OV-3, read-out: percent growth inhibition
[17] = system: M14; assay: as above; format: cell-based; conditions: Homo sapiens; for inhibition at 10 µM: M14, read-out: percent growth inhibition
[18] = target: Human VEGFR-2 (Homo sapiens, UniProt P35968); assay: VEGFR-2 inhibition assay; format: biochemical
[19] = system: CNS cancer cell lines; assay: NCI-60 SRB growth inhibition, subpanel; format: cell-based, human; conditions: for GI50: Homo sapiens
[20] = system: Colon cancer cell lines; assay: NCI-60 SRB growth inhibition, subpanel; format: cell-based, human; conditions: for GI50: Homo sapiens
[21] = system: Prostate cancer cell lines; assay: NCI-60 SRB growth inhibition, subpanel; format: cell-based, human; conditions: for GI50: Homo sapiens
[22] = system: NSCLC cell lines; assay: NCI-60 SRB growth inhibition, subpanel; format: cell-based, human; conditions: for GI50: Homo sapiens
[23] = system: MDA-MB-231/ATCC; assay: NCI-60 SRB growth inhibition, one-dose and five-dose; format: cell-based; conditions: Homo sapiens, MDA-MB-231
[24] = system: Breast cancer cell lines; assay: NCI-60 SRB growth inhibition, subpanel; format: cell-based, human; conditions: for GI50: Homo sapiens
[25] = system: Ovarian cancer cell lines; assay: NCI-60 SRB growth inhibition, subpanel; format: cell-based, human; conditions: for GI50: Homo sapiens
[26] = system: WI-38 normal human fibroblast cells; assay: Cytotoxicity towards normal fibroblasts, safety index; format: cell-based; conditions: WI-38 versus cancer cell lines
[27] = as above; format: cell-based, human; conditions: human, WI-38 normal fibroblast cells
[28] = system: UO-31; assay: NCI-60 SRB growth inhibition, one-dose and five-dose; format: cell-based; conditions: Homo sapiens, UO-31
[29] = system: Renal cancer cell lines; assay: NCI-60 SRB growth inhibition, subpanel; format: cell-based, human; conditions: for GI50: Homo sapiens
[30] = system: Leukaemia cell lines; assay: NCI-60 SRB growth inhibition, subpanel; format: cell-based, human; conditions: for GI50: Homo sapiens
[31] = system: Melanoma cell lines; assay: NCI-60 SRB growth inhibition, subpanel; format: cell-based, human; conditions: for GI50: Homo sapiens

Sequence of Human VEGFR-2 (P35968 20-1356): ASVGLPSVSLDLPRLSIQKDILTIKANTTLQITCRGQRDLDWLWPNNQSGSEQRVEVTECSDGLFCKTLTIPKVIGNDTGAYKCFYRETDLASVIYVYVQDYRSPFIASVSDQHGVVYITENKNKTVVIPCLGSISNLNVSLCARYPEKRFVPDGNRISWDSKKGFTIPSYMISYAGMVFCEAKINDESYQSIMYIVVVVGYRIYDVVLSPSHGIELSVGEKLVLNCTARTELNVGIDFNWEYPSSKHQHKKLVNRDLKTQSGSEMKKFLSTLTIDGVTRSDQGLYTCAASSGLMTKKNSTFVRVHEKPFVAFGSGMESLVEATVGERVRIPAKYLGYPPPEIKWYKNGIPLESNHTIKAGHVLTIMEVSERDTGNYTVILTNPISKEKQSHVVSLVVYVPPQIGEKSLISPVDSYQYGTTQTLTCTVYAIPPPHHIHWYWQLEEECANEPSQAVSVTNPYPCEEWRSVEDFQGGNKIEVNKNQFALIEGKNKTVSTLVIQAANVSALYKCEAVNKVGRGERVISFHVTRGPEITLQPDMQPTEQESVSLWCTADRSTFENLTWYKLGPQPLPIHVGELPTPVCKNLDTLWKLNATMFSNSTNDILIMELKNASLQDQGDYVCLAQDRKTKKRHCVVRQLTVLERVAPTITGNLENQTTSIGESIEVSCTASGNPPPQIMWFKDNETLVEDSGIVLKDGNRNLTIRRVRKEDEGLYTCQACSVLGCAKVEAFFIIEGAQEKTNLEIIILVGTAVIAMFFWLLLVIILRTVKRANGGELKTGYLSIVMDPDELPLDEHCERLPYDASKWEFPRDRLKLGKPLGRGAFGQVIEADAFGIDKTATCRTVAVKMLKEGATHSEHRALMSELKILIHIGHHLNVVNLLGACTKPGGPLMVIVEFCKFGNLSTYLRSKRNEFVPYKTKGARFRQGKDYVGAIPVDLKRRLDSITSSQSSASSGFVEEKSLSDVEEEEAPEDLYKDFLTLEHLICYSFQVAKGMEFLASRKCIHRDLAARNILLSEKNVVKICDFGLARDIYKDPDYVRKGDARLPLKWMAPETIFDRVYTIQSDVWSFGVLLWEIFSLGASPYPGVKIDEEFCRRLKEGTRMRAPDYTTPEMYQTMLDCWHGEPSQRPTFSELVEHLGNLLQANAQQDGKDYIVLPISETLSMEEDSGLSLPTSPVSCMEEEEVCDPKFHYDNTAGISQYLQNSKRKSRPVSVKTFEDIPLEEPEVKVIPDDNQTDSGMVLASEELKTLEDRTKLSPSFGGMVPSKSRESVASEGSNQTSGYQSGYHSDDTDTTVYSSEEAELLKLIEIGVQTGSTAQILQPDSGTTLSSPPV

Compound CC(=O)Nc1ccc(CNc2cccc(C(=O)/C=C/c3c[nH]cn3)c2)cc1 [Compound 5l, (E)-N-(4-(((3–(3-(1H-imidazol-4-yl)acryloyl)phenyl)amino)methyl)phenyl)acetamide] has an inhibition at 10 µM [1] of 12.9%, an inhibition at 10 µM [2] of 65.2% and an inhibition at 10 µM [3] of 84%. The inhibition at 10 µM [4] was 7.64%, the inhibition at 10 µM [5] was 8.86% and the inhibition at 10 µM [6] was 13.4%. The inhibition at 10 µM [7] was 11.5%, the inhibition at 10 µM [8] was 24.8% and the inhibition at 10 µM [9] was 24.8%. It also gave an inhibition at 10 µM [10] of 19.3%, an inhibition at 10 µM [11] of 43.6% and an inhibition at 10 µM [12] of 48.3%. The inhibition at 10 µM [13] was 40.3%, the inhibition at 10 µM [14] was 38% and the inhibition at 10 µM [15] was 19.8%. It also gave an inhibition at 10 µM [16] of -9.94% and an inhibition at 10 µM [17] of 13.5%.
O=C(/C=C/c1c[nH]cn1)c1cccc(NCc2ccc3oc(=O)ccc3c2)c1 [Compound 5n, (E)-6-(((3–(3-(1H-imidazol-4-yl)acryloyl)phenyl)amino)methyl)-2H-chromen-2-one] gave an inhibition at 10 µM [1] of 30%, an inhibition at 10 µM [2] of 85.4% and an inhibition at 10 µM [3] of 83.2%. The inhibition at 10 µM [4] was 17.1%, the inhibition at 10 µM [5] was 32.5% and the inhibition at 10 µM [6] was 13.3%. The inhibition at 10 µM [7] was 28.3%, the inhibition at 10 µM [8] was 31.8% and the inhibition at 10 µM [9] was 45.6%. For the same compound, the inhibition at 10 µM [10] was 43.6%, the inhibition at 10 µM [11] was 25.1% and the inhibition at 10 µM [12] was 68.2%. For the same compound, the inhibition at 10 µM [13] was 61.1%, the inhibition at 10 µM [14] was 86.9% and the inhibition at 10 µM [15] was 29.8%. It also gave an inhibition at 10 µM [16] of -4.46% and an inhibition at 10 µM [17] of 24.5%.
Work on O=C(/C=C/c1cccnc1)c1cccc(NCc2csc3ccccc23)c1 [Compound 5d, (E)-1–(3-((benzo[b]thiophen-3-ylmethyl)amino)phenyl)-3-(pyridin-3-yl)prop-2-en-1-one] yielded an IC50 [18] of 1.46 ± 0.009 µM, a GI50 ([1]; TK-10) of 6.18 µM and an inhibition at 10 µM [1] of 60%. The GI50 ([2]; HL-60) was 2.73 µM, the inhibition at 10 µM [2] was 135% and the GI50 ([3]; MDA-MB-468) was 1.82 µM. The inhibition at 10 µM [3] was 162%, the GI50 ([19]; read-out: GI50 MG-MID) was 5.4 µM and the GI50 ([19]; read-out: MG-MID GI50) was 5.4 µM. The “SI (Selectivity Index)” value ([19]; full panel MG-MID / CNS Cancer subpanel MG-MID) was 0.88, the GI50 ([20]; read-out: GI50 MG-MID) was 3.93 µM and the GI50 ([20]; read-out: MG-MID GI50) was 3.93 µM. For the same compound, the “SI (Selectivity Index)” value ([20]; full panel MG-MID / Colon Cancer subpanel MG-MID) was 1.21, the GI50 ([21]; read-out: GI50 MG-MID) was 5.56 µM and the GI50 ([21]; read-out: MG-MID GI50) was 5.56 µM. For the same compound, the “SI (Selectivity Index)” value ([21]; full panel MG-MID / Prostatic Cancer subpanel MG-MID) was 0.85, the GI50 ([4]; PC-3) was 3.76 µM and the inhibition at 10 µM [4] was 99.2%. It also gave an inhibition at 10 µM [5] of 119%, a GI50 ([6]; SK-MEL-28) of 3.55 µM and an inhibition at 10 µM [6] of 145%. For the same compound, the GI50 ([7]; NCI-H23) was 3.94 µM, the inhibition at 10 µM [7] was 139% and the GI50 ([8]; SW-620) was 1.84 µM. The inhibition at 10 µM [8] was 166%, the GI50 ([22]; read-out: GI50 MG-MID) was 6.83 µM and the GI50 ([22]; read-out: MG-MID GI50) was 6.83 µM. For the same compound, the “SI (Selectivity Index)” value ([22]; full panel MG-MID / NSCLC subpanel MG-MID) was 0.69, the GI50 [9] was 3.98 µM and the inhibition at 10 µM [9] was 106%. The GI50 [23] was 2.67 µM, the GI50 ([24]; read-out: GI50 MG-MID) was 2.69 µM and the GI50 ([24]; read-out: MG-MID GI50) was 2.69 µM. For the same compound, the “SI (Selectivity Index)” value ([24]; full panel MG-MID / Breast Cancer subpanel MG-MID) was 1.76, the GI50 ([25]; read-out: GI50 MG-MID) was 5.3 µM and the GI50 ([25]; read-out: MG-MID GI50) was 5.3 µM. For the same compound, the “SI (Selectivity Index)” value ([25]; full panel MG-MID / Ovarian Cancer subpanel MG-MID) was 0.89, the Safety index [26] was greater than 1 and the GI50 at 48 h [27] was greater than 100 µM. The GI50 [28] was 4.94 µM, the GI50 ([29]; read-out: GI50 MG-MID) was 6.46 µM and the GI50 ([29]; read-out: MG-MID GI50) was 6.46 µM. The “SI (Selectivity Index)” value ([29]; full panel MG-MID / Renal Cancer subpanel MG-MID) was 0.73, the GI50 ([30]; read-out: GI50 MG-MID) was 2.76 µM and the GI50 ([30]; read-out: MG-MID GI50) was 2.76 µM. The “SI (Selectivity Index)” value ([30]; full panel MG-MID / leukaemia subpanel MG-MID) was 1.72, the GI50 ([10]; UACC-257) was 5.58 µM and the inhibition at 10 µM [10] was 105%. It also gave a GI50 ([11]; KM12) of 3.58 µM, an inhibition at 10 µM [11] of 158% and a GI50 ([12]; U-251) of 1.92 µM. It also gave an inhibition at 10 µM [12] of 198%, a GI50 ([13]; MOLT-4) of 3.16 µM and an inhibition at 10 µM [13] of 114%. It also gave a GI50 ([14]; RPMI-8226) of 1.99 µM, an inhibition at 10 µM [14] of 119% and a GI50 [15] of 3.02 µM. The inhibition at 10 µM [15] was 128%, the GI50 ([16]; SK-OV-3) was 11.8 µM and the inhibition at 10 µM [16] was 35.8%. The GI50 ([31]; read-out: GI50 MG-MID) was 3.76 µM, the GI50 ([31]; read-out: MG-MID GI50) was 3.76 µM and the “SI (Selectivity Index)” value ([31]; full panel MG-MID / Melanoma subpanel MG-MID) was 1.26. It also gave a GI50 ([17]; M14) of 4.14 µM and an inhibition at 10 µM [17] of 129%.
O=C(/C=C/c1c[nH]cn1)c1cccc(NCc2ccc(CO)cc2)c1 [Compound 5m, (E)-1–(3-((4-(hydroxymethyl)benzyl)amino)phenyl)-3-(1H-imidazol-4-yl)prop-2-en-1-one] gave an inhibition at 10 µM [1] of 6.96%, an inhibition at 10 µM [2] of 65.9% and an inhibition at 10 µM [3] of 80.5%. For the same compound, the inhibition at 10 µM [4] was 11.3%, the inhibition at 10 µM [5] was 15.4% and the inhibition at 10 µM [6] was 6.66%. It also gave an inhibition at 10 µM [7] of 18.6%, an inhibition at 10 µM [8] of 23.8% and an inhibition at 10 µM [9] of 32.2%. For the same compound, the inhibition at 10 µM [10] was 22.5%, the inhibition at 10 µM [11] was 9.57% and the inhibition at 10 µM [12] was 56%. It also gave an inhibition at 10 µM [13] of 28.5%, an inhibition at 10 µM [14] of 63.3% and an inhibition at 10 µM [15] of 19.9%. It also gave an inhibition at 10 µM [16] of -2.54% and an inhibition at 10 µM [17] of 15%.
CC(=O)Nc1ccc(/C=C/C(=O)c2cccc(NCc3ccc4oc(=O)ccc4c3)c2)cc1 [Compound 5k, (E)-N-(4–(3-oxo-3–(3-(((2-oxo-2H-chromen-6-yl)methyl)amino)phenyl)prop-1-en-1-yl)phenyl)acetamide] showed an inhibition at 10 µM [1] of 25.8%, an inhibition at 10 µM [2] of 59% and an inhibition at 10 µM [3] of 72.9%. It also gave an inhibition at 10 µM [4] of 27.6%, an inhibition at 10 µM [5] of 34.9% and an inhibition at 10 µM [6] of 21.2%. For the same compound, the inhibition at 10 µM [7] was 38.6%, the inhibition at 10 µM [8] was 52.2% and the inhibition at 10 µM [9] was 64.5%. The inhibition at 10 µM [10] was 45.1%, the inhibition at 10 µM [11] was 34.4% and the inhibition at 10 µM [12] was 49%. It also gave an inhibition at 10 µM [13] of 84.2%, an inhibition at 10 µM [14] of 80.5% and an inhibition at 10 µM [15] of 29.5%. For the same compound, the inhibition at 10 µM [16] was 3.88% and the inhibition at 10 µM [17] was 30.6%.

From PMC11003488 (Journal of Enzyme Inhibition and Medicinal Chemistry, 2023)
